Experimental data: patent US9579344B2, “Use of nitrite salts in treating tissue damage” (Board of Supervisors of Louisiana State University and …, priority 2009, dated 2017)
Like-named read-outs stand apart in the source and are kept apart here.

Columns and labels:
C2C12 myoblasts = tested on: C2C12 myoblasts
From the text: (§1) A contained hypoxia tissue culture system was used allowing the long term culturing of cells in hypoxia (24 hrs). A fluorescent plate reader in hypoxic chamber measured NO formation using the fluorescent dye DAF-FM.

cultured cells = settings: hypoxic and normoxic conditions, 100 nM or 1 uM sodium nitrite (FIG. 16)
Procedure: FIG. 16 depicts the chemiluminescent detection of nitrite/nitric oxide during hypoxia.
(§2) The effect of specific inhibitors of NO production, carboxy PTIO (2-(4-Carboxyphenyl)-4,4,5,5-tetramethylimidazoline-1-oxyl-3-oxide), allopurinol and L-NAME, was also analyzed. […] Results for iliac vein smooth muscle cells are shown in FIGS. 7A, 7B and 8; results for aortic smooth muscle cells are shown in FIGS. 9A, 9B and 10; results for coronary artery cells are shown in FIGS. 11A, 11B and 12, results for umbillical vein cells are shown in FIGS. 13A, 13B and 14.

[1] = tested on: iliac vein smooth muscle cells, aortic smooth muscle cells
Procedure: as §1, §2

[2] = tested on: coronary artery endothelial cells, umbilical vein endothelial cells
Procedure: as §1, §2

[3] = tested on: gastrocnemius muscles of aged diabetic mice; settings: non-ischemic tissues of aged diabetic mice (FIG. 21B)
From the text: (§3) B6.BKS-Lepr^db/db diabetic mice were purchased from Jackson's laboratory and housed in the animal center of LSU Health Sciences Center for 6 months. Surgical hind limb ischemia was created in 9 month-old male (Db/Db) type-2 diabetic mice. The mice were anesthetized by isoflurane inhalation and the left groin area was shaved and naired. The left external iliac artery and vein, left femoral artery and vein, left saphenous artery and vein and deep femoral and circumflex arteries and veins were ligated, cut, and excised to obtain a mouse model of critical hind limb ischemia. […] All treatments were performed in a double-blinded manner.
The gastrocnemius muscles from ischemic and non-ischemic hind limbs were removed, dissected, and embedded in OCT freezing medium. Frozen tissue blocks were cut into 5 μm sections and slides prepared. A primary antibody against PECAM-1 was added at a 1:200 dilution along with anti-Ki67 (1:350 dilutions) and incubated at 37° C. for 1 hour. Slides were then washed and a Cy3 conjugated secondary antibody was added at a 1:250 dilution along with anti-rabbit Ig antibody at a 1:150 dilution and incubated at room temperature for 1 hour. Slides were once again washed and mounted with cover slips using Vectashield DAPI. […] Cellular proliferation was determined as the ratio between regions positive for Ki67 and DAPI positive area.

[4] = tested on: ischemic tissue gene expression
Procedure: (§4) Hind limb ischemia was induced by ligating the left common femoral artery proximal to origin of profunda femoris artery according to Senthilkumar, A., Smith, R. D., Khitha, J., Arora, N., Veerareddy, S., Langston, W., Chidlow, 1H., Jr., Barlow, S. c., Teng, x., Patel, R. P., et al. 2007. Arterioscler Thromb Vasc Biol 27: 1947-1954. Mice were anesthetized with intraperitoneal injection of ketamine (100 mglkg) and xylazine (8 mglkg); surgery was performed under aseptic conditions. The common femoral vein and femoral nerve were dissected away from the artery. Two ligatures were placed in the common femoral artery proximal to the profunda femoris artery and then transected between the two ligations. The incision was then closed and the ligation was immediately verified by laser Doppler measurement of tissue blood flow.
RNA integrity was checked using the Agilent 2100 Bioanalyzer (Agilent Technologies, Palo Alto, Calif.). […] Double stranded cDNA was synthesized from 5 ug total RNA using a Superscript cDNA synthesis Kit (Invitrogen, Carlsbad, Calif.) and purified using the Gene Chip Sample Cleanup Module (Affymetrix, Santa Vlara, Calif.). After biotin-labeling, the cDNA were fragmented at 94° C. and hybridized to the GeneChip® Mouse Genome 430 2.0 Array (Affymetrix), which contains 39,000 fully annotated transcripts of the mouse genome. After washing and staining, the arrays were scanned using GeneChip Scanner 3000 (Affymetrix) and hybridization efficiency determined by housekeeping control and spike control probe sets.
Array data were globally scaled to a target intensity value of 500 to compare individual array experiments. To determine differentially expressed genes between PBS and nitrite treatment, data were log transformed and uploaded into Genesifter program (www.genesifter.net). Identification of significant changes in gene expression were determined using a pair-wise comparison of PBS versus nitrite therapy gene array data at each individual time point with the following criteria: a minimal 2-fold difference in expression with no maximal threshold limit, a hybridization quality cutoff of 1, and an unpaired student t-test between treatment groups followed by Benjamini and Hochberg post test to limit false discovery rates.
The resulting output of network analysis was broken down according to the genetic composition of networks, the biological function of the networks, the number of interrelated network relationships, as well as statistical analysis of individual networks.
Induction of chronic hind limb ischemia was performed according to the method in Example 1. […] Nitrite doses were given once in the morning (8 am) and a second in the afternoon (5 pm) with muscle tissue harvested on the morning of the 4th and 8th days (to give an entire 3 and 7 day period for study). Four muscle specimens from individual mice were harvested per treatment cohort per time point for a total of 16 individual specimens for gene array analysis. Harvested tissue was immediately frozen in liquid nitrogen for subsequent total RNA isolation. Laser doppler blood flow measurements were taken from non-ischemic and ischemic hind limbs prior to tissue collection to determine the amount of ischemic tissue perfusion using a Vasamedics Laserflo BPM2 deep tissue penetrating doppler device. Percent restoration of blood flow was determined by dividing the ischemic hind limb blood flow by the non-ischemic hind limb blood flow and multiplying by 100. Statistical analysis of changes in tissue blood flow between treatment groups at specific time points were performed with an unpaired students t-test using Prism software (Graphpad).

C2C12 myoblast cells = settings: hypoxic conditions
[5] = tested on: ischemic hindlimbs of aged diabetic mice; settings: PBS controls showed extensive necrosis and digit loss
From the text: as §3

[6] = aged diabetic mice
From the text: as §3
Blood glucose measurements were taken using Ascensia Elite blood glucose test strips and a Bayer Glucometer Elite.
Plasma total cholesterol and LDL levels were determined using a Siemens Vista Clinical Chemistry analyzer.

[7] = tested on: ischemic hindlimbs of C57Bl/6J mice; settings: fluorescence angiograms, 4 seconds blush time, vs PBS
Procedure: as §4

[8] = tested on: ischemic hind limb of B6.BKS-Lepr^db/db diabetic mice; settings: aged diabetic mice, 165 ug/kg
From the text: as §3
Laser Doppler blood flows were measured using a Vasamedics Laserflo BPM2 device in the gastrocnemius pre-ligation, post-ligation and on days 1, 3, 5, 7, 9, 11, 13, 15, 17, 19 and 21 post-ligation. Blood vessels visible through the skin were avoided to ensure readings indicative of muscle blood flow. Measurements were recorded as milliliter of blood flow per 100 grams of tissue per minute. Percent blood flows were calculated as: a/b××100 where a=ischemic limb average flow and b=non-ischemic limb average flow.

[9] = cardiovascular development and function, skeletal muscle development, tissue development
[10] = cellular assembly and organization, carbohydrate metabolism, molecular transport
[11] = day 3, 165 μg/kg twice daily i.p., vs PBS
[12] = day 3, Ingenuity network analysis
[13] = day 7, 165 μg/kg twice daily i.p., vs PBS
[14] = inflammatory response, neurological disease, cellular development

Compound: O=NO [sodium nitrite]
- levels of NO (C2C12 myoblasts; 0.01 uM sodium nitrite, only in hypoxic conditions (FIG. 24B)): significantly increased
- NO levels (C2C12 myoblasts; 100 uM sodium nitrite (FIG. 24A)): did not alter
- intracellular NO levels (cultured cells): lower concentrations, but not higher concentrations, of sodium nitrite resulted in a significant increase
- DAF fluorescence (NO formation) ([1]; higher concentrations of exogenous nitrite required): large increases in DAF fluorescence
- nitrite reduction to NO ([1]; hypoxic conditions (1% oxygen)): reduced nitrite to NO
- nitrite reduction to NO, concentration dependence [2]: reduced nitrite to NO at lower concentrations of exogenous nitrite
- nitrite reduction to NO ([2]; hypoxic conditions (1% oxygen)): reduced nitrite to NO
- epithelial cell proliferation [3]: but not non-ischemic tissues
- genes enhanced, FIG. 2 network ([4]; antigen presentation, cell mediated immunity, humoral mediated immunity): calsequestrin 2, GST alpha 5, and solute carrier family member 25
- genes inhibited, FIG. 6 network ([4]; cancer, nervous system development and function, tissue morphology): glycerol-3-phosphate dehydrogenase and protein phosphatase 2, reg subunit B
- genes enhanced, FIG. 3 network [4, 9]: CXCR6, VE-cadherin, DIX domain containing 1, myosin, heavy chain 2, myosin, light chain 2, myosin, light chain 4, myosin, light chain 9, P2rY2, paired like homeodomain 2, troponin C, type 1, troponin T, type 2 and vitronectin
- genes inhibited, FIG. 3 network [4, 9]: Rho Gtpase activating protein 17, CCR5, CXCL12, CXCL7, formin binding protein 1, G protein coupled receptor 65, 5-HT receptor 2B, serine/threonine kinase 17b and thrombospondin 2
- genes enhanced, FIG. 1 network ([4]; cardiovascular system development and function, tissue morphology, carbohydrate metabolism): flavin containing monoxygenase 5, smoothelin like 1, mysoin heavy chain 7, CUB zona pellucida like domains 1 and small proline rich protein 1A
- genes enhanced, FIG. 4 network [4, 10]: cyclin M4, EH domain containing 2, myosin heavy chain 7, myosin light chain 9 regulatory, popeye domain containing 2 and TEA domain family member 4
- genes inhibited, FIG. 4 network [4, 10]: adipose differentiated-related protein, chitinase 3-like 3, kinesin family member 20B, leukocyte specific transcript 1, RNA binding motif protein 47 and sorting nexin 6
- genes down-regulated [4, 11]: 346 genes
- genes up-regulated [4, 11]: 111 genes
- expression of genes associated with innate and acquired immune responses (FIG. 1) [4, 12]: inhibited
- expression of genes involved in antigen presentation, cell mediated immunity, and humoral mediated immunity (FIG. 2) [4, 12]: altered
- expression of genes involved in cardiovascular development and function, skeletal muscle development, and tissue development (FIG. 3) [4, 12]: altered
- expression of genes involved in cardiovascular system development and function, tissue morphology, and carbohydrate metabolism (FIG. 1) [4, 12]: enhanced
- expression of genes involved in cellular assembly and organization, carbohydrate metabolism and molecular transport (FIG. 4) [4, 12]: altered
- expression of genes involved in inflammatory response, neurological disease and cellular development (FIG. 5) [4, 12]: altered
- distinct gene expression profiles significantly altered ([4]; day 3 of ischemia, 165 μg/kg twice daily i.p., vs PBS, minimal 2-fold difference): 457
- expression of genes associated with tissue remodeling ([4]; day 7): enhanced
- genes down-regulated [4, 13]: 55 genes
- genes up-regulated [4, 13]: 219 genes
- expression of genes involved in cancer, nervous system development and function and tissue morphology (FIG. 6) ([4]; day 7, Ingenuity network analysis): altered
- genes with differentially impacted expression profile ([4]; day 7 of ischemia, 165 μg/kg twice daily i.p., vs PBS): 274 genes
- genes enhanced, FIG. 5 network [4, 14]: glycogen syntase 1 (muscle), kin of IRRE like 3, solute carrier family 16, member 3, solute carrier family 8, member 3 and uridine-cytidine kinase 2
- genes inhibited, FIG. 5 network [4, 14]: C-type lectin domain family 5, A, FERM domain containing 4B, receptor (G protein coupled) activity modifying protein 2, signal-regulatory protein beta 1, solute carrier family 15, member 3 and zinc finger E-box binding homeobox 2
- myogenin mRNA levels ([4]; ischemic mouse hindlimb gastrocnemius muscle, nitrite-treated animals (FIG. 25A)): significantly increased
- myogenin mRNA (C2C12 myoblast cells; decreasing levels of sodium nitrite, inversely correlated with nitrite concentration): dose-dependent increase
- levels of myogenin mRNA (C2C12 myoblast cells; lowest dose 0.01 uM sodium nitrite): highest
- digit loss [5]: no digit loss
- necrosis [5]: minimal necrosis
- body weight ([6]; delayed chronic treatment (FIG. 18A)): did not alter
- blood glucose levels ([6]; delayed chronic treatment (FIG. 18B)): did not alter
- serum cholesterol ([6]; delayed chronic treatment (FIG. 19A)): significantly decreased
- serum LDL ([6]; delayed chronic treatment (FIG. 19B)): significantly decreased
- arteriogenesis [7]: significantly increased
- blood flow in ischemic hind limbs compared with PBS-treated control animals ([8]; all time points analyzed): significantly greater
- blood flow in ischemic hind limbs relative to preligation ([8]; by the end of the study): approached preligation levels
- ischemic hind-limb blood flow ([8]; treatment delayed to five days after surgery): restored
